The text below walks through data of PubChem BioAssay (NCI).

What all share (assay): NCI anticancer screen, dose series, 48 h
Experiment [1] concerns SNB-19 CNS.
Experiment [2] has as its system ACHN renal.
Experiment [3] concerns NCI-H522 lung.
Experiment [4] deals with SF-268 CNS.
Experiment [5] relates to MCF7 breast.
Experiment [6] concerns OVCAR-8 ovarian.
The test system of experiment [7] is M14 melanoma.
For experiment [8], the system named is HCT-15 colon.
Experiment [9] relates to KM12 colon.
Experiment [10] deals with SK-MEL-5 melanoma.

Structures are written as SMILES. Values joined by “and” are separate entries in the source; they are usually repeats but may differ in a detail not shown here. Identical values can stand only once.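 Grown in 96-well plates, cells were treated for 48 hours with each compound at five concentrations. Insufficient inhibition: endpoint recorded as highest concentration tested. GI50 marks 50% less growth. TGI marks complete inhibition of growth.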

With `CC1N(C)C(=O)OC12CCN(CCCC(=O)c1ccc(F)cc1)CC2` (stereo not given), the TGI in [1], in experiment [2], in experiment [3], in experiment [4], in experiment [5] and in experiment [6] was over 100 µM in each case. The TGI in [7], in experiment [8], in [9] and in experiment [10] was over 100 µM throughout.
In the case of `O=C1CCC2SC1CCC2=O`, the TGI in experiment [1], in experiment [2], in experiment [3], in [4], in experiment [5] and in [6] was over 100 µM each time. The TGI in experiment [7], in experiment [8], in experiment [9] and in experiment [10] was over 100 µM each time.
`O=C1CCCc2cc3c(cc21)CCC3C(=O)O` (stereo not given): the TGI in [1], in experiment [2], in experiment [3], in [4], in experiment [5] and in experiment [6] was over 100 µM throughout. In addition, the TGI in experiment [7], in [8], in experiment [9] and in [10] was over 100 µM in each case.
With `O=C1CC2(CCC(O)(c3ccc(Cl)cc3)C(C(=O)c3ccc(Cl)cc3)C2)C(=O)c2ccccc2N1` (stereo not given), the TGI in [1] is 6.71 µM; in [2], 25.4 µM; in [3], over 100 µM; in experiment [4] it was 17 µM; in [5], over 100 µM; in experiment [6], over 62.4 µM. Also, the TGI in experiment [7] is over 100 µM; in [8], over 100 µM; in [9] it was over 100 µM; in [10], 43.4 µM.
On to `O=S1(=O)CCN(Cc2ccccc2)/C1=N\S(=O)(=O)c1ccc(Cl)cc1`, for which the TGI in [1] was over 100 µM; in experiment [2], 33.1 µM; in experiment [3], 29.9 µM; in experiment [4], 31.4 µM; in experiment [5], 42.4 µM; in [6], 32.9 µM. Besides, the TGI in experiment [7] is 32.9 µM; in experiment [8] it was 37 µM; in experiment [9], over 100 µM; in experiment [10], 41.9 µM.
Regarding `CNC(=O)c1n[nH][nH]c1=O`, the TGI in [1], in [2], in experiment [3], in [4], in experiment [5] and in [6] was over 100 µM in each case. For the same compound, the TGI in [7], in [8], in experiment [9] and in [10] was over 100 µM throughout.
With `CC(C)CC1c2[nH]c3ccccc3c2C[C@H]2C(=O)NC(CCC(=O)OC(C)(C)C)C(=O)N12` (stereo not given in full), the TGI in experiment [1] was over 100 µM; in experiment [2], over 100 µM; in [3], 88.1 µM; in [4] it was over 100 µM; in experiment [5], over 100 µM; in [6], over 100 µM. In addition, the TGI is over 100 µM in experiment [7], over 100 µM in experiment [8], over 100 µM in experiment [9] and 61.7 µM in experiment [10].
For `CN(C)CCO/N=C1/C=C2CC[C@H]3[C@@H]4CC[C@H](O)[C@@]4(C)CC[C@@H]3[C@@]2(C)CC1`, the TGI is over 100 µM in experiment [1]; 40.9 µM in experiment [2]; 13.7 µM in [3]; 31.6 µM in experiment [4]; 86 µM in experiment [5]; 45.5 µM in experiment [6]. Besides, the TGI in experiment [7] was over 37 µM; in experiment [8], 47.7 µM; in experiment [9], 32.4 µM; in experiment [10] it was 34.3 µM.
Consider `Cn1c2nc3ccccc3c-2cc2ccccc21`, for which the GI50 in [1] is 5.94 µM and 14.7 µM; in experiment [2] it was 2.06 µM and 4.8 µM; in experiment [3], 2.07 µM and 6.03 µM; in experiment [4], 3.95 µM and 8.47 µM; in [6], 2.48 µM and 7.18 µM; in experiment [7] it was 4.29 µM and 11.2 µM. The GI50 in [8] was 1.14 µM and 4.06 µM; in [9] it was 2.19 µM and 6.02 µM; in [10] it was 4 µM and 8.37 µM. Moreover, the TGI in experiment [1] is over 100 µM; in experiment [2] it was 15.2 µM and > 100 µM; in [3] it was 10.3 µM and 23.7 µM; in [4], 17 µM and 40.3 µM; in experiment [5], > 34.8 µM and 36.9 µM; in experiment [6], 13.6 µM and > 100 µM. The TGI in experiment [7] was > 42.2 µM and 23.6 µM; in [8] it was 7.3 µM and 23.4 µM; in experiment [9], 11 µM and 46.4 µM; in experiment [10] it was 16.8 µM and 24 µM.
For `CC(=O)Nc1ccc2c(C)c3c4ccccc4n(C)c3nc2n1`, the TGI in experiment [1] was over 100 µM; in experiment [2], 33.1 µM; in [3] it was 65.6 µM; in experiment [4] it was 64.4 µM; in experiment [5], 96.7 µM; in [6], over 100 µM. Moreover, the TGI in [7] came out at 52.3 µM; in [8] it was 48.6 µM; in experiment [9], 40.2 µM; in [10] it was 21.9 µM.
As for `COc1ccc(OC)c2nc3c(C(=O)NCCN(C)C)cccc3nc12`, the TGI in experiment [1] is over 100 µM; in [2] it was over 100 µM; in experiment [3], 13.4 µM; in [4], 27.6 µM; in experiment [5] it was over 29.8 µM; in experiment [6] it was 17.7 µM. Further, the TGI in experiment [7] is 15.8 µM; in experiment [8] it was over 51.5 µM; in experiment [9], 22.3 µM; in experiment [10], 14.1 µM.
On to `[N-]=[N+]=Nc1ccc2c(c1)Sc1ccccc1N2CCCCCl`, for which the TGI in experiment [1], in experiment [2], in experiment [3], in experiment [4], in experiment [5] and in [6] was over 100 µM each time. The TGI in experiment [7] is over 100 µM; in [8] it was over 100 µM; in experiment [9], over 100 µM; in [10] it was 59.8 µM.
`CC1=C(OC2OC(CO)C(O)C(O)C2O)C(=O)C[C@H]2C1=CC[C@@H]1[C@@]2(C)C(=O)C[C@]2(C)[C@@H]([C@@](C)(O)C(=O)CCC(C)(C)O)[C@H](O)C[C@@]12C` (stereo not given in full): the TGI in experiment [1], in experiment [2], in [3], in [4], in experiment [5] and in experiment [6] was over 100 µM in each case. Moreover, the TGI in [7], in experiment [8], in [9] and in experiment [10] was over 100 µM in each case.
With `Cc1ccccc1N(C)S(=O)(=O)c1ccccc1[N+](=O)[O-]`, the TGI in experiment [1], in experiment [2], in experiment [3], in experiment [4], in [5] and in [6] was over 100 µM in each case. The TGI in [7] is over 100 µM; in experiment [8] it was over 100 µM; in experiment [9], over 100 µM; in [10], 30.7 µM.
Consider `CCN(CC)CCS(=O)c1c2cc(OC)ccc2nc2ccc(OC)cc12` (stereo not given), for which the TGI in experiment [1] is 72 µM; in experiment [2], 5.44 µM; in [3], 1.38 µM; in experiment [4], 23.5 µM; in experiment [5] it was over 24.9 µM; in [6], 21 µM. Moreover, the TGI in experiment [7] is 26.3 µM; in experiment [8], 16.6 µM; in experiment [9], over 57.5 µM; in [10], 32.3 µM.
For the compound `CCOC(=O)n1cncc1CC(NC(=O)Cc1c(C(=O)C=C(C)C)[nH]c2ccccc12)C(=O)OC` (stereo not given), the TGI in experiment [1] came to 30.5 µM; in [2], 36 µM; in [3], 15.2 µM; in [4] it was 37.4 µM; in experiment [5], 84.1 µM; in [6], 40.2 µM. Besides, the TGI turned out to be 33.3 µM in experiment [7], 59.6 µM in experiment [8], 39.1 µM in [9] and 37.5 µM in [10].
On to `CCCCc1c2c(nc3c1CCC/C3=C\c1ccccc1)C(=O)C(CN(C)C)CC2` (stereo not given), for which the TGI is 32.6 µM in [1]; 29.5 µM in [2]; 30.1 µM in experiment [3]; 35.6 µM in experiment [4]; 15.7 µM in experiment [5]; 46.1 µM in [6]. For the same compound, the TGI in experiment [7] was 33.7 µM; in [8] it was 20.7 µM; in experiment [9], 33.6 µM; in experiment [10], 30.9 µM.
Turning to `O=C1N=C(c2ccccc2)O/C1=C\c1ccccc1`, the TGI in experiment [1], in experiment [2], in [3], in [4], in [5] and in experiment [6] was over 100 µM throughout. Also, the TGI in experiment [7], in [8], in [9] and in experiment [10] was over 100 µM in each case.
As for `CC(=O)CCC[C@@H](C)[C@@H]1O[C@H]([C@@]2(C)CCC(=O)O2)C[C@H]2C(CSc3ccccc3)C(=O)O[C@@H]12` (stereo not given in full), the TGI in [1] is over 100 µM; in experiment [2], 28.9 µM; in experiment [3] it was 15.2 µM; in experiment [4], 55.1 µM; in experiment [5] it was 24.9 µM; in experiment [6], over 50.8 µM. Besides, the TGI in experiment [7] is 26.8 µM; in experiment [8] it was 47.3 µM; in [9], 28.9 µM; in [10] it was over 54.3 µM.
For `CC1OC(O[C@H]2CC[C@]3(C)[C@H]4CC=C5[C@@H]6[C@@H](C)[C@H](C)CC[C@]6(C(=O)O)CC[C@@]5(C(=O)O)[C@]4(C)CC[C@H]3C2(C)C)C(O)C(O)C1O` (stereo not given in full), the TGI in experiment [1], in [2], in experiment [3], in [4], in [5] and in experiment [6] was over 75 µM in each case. For the same compound, the TGI in experiment [7], in experiment [8], in experiment [9] and in experiment [10] was over 75 µM in each case.
On to `CC(C)(C)N1NC1C1NN1C(C)(C)C` (stereo not given), for which the TGI in experiment [1], in experiment [2], in [3], in [4], in experiment [5] and in [6] was over 100 µM each time. For the same compound, the TGI in experiment [7], in experiment [8], in [9] and in experiment [10] was over 100 µM each time.
`CCC(=O)COc1ccc(NC(NC(=O)C(C(F)(F)F)C(F)(F)F)(C(F)(F)F)C(F)(F)F)cc1`: the TGI in experiment [1] was over 100 µM; in [2], over 100 µM; in experiment [3], 35.5 µM; in [4] it was 78.1 µM; in experiment [5] it was over 100 µM; in experiment [6], 62.8 µM. The TGI in experiment [7], in experiment [8], in experiment [9] and in experiment [10] was over 100 µM throughout.
Regarding `CN(C)CCNc1ccc2c(=O)n(CCN(C)C)c(=O)n3c4ccc(N)cc4c(=O)c1c23`, the TGI in experiment [1] turned out to be 0.788 µM; in [2], 0.734 µM; in experiment [3], 0.0832 µM; in experiment [4], 1.25 µM; in experiment [5], 0.242 µM; in experiment [6], 0.722 µM. Besides, the TGI in experiment [7] was found to be 0.449 µM; in experiment [8], 1.08 µM; in experiment [9] it was 7.52 µM; in [10], 1.37 µM.
With `CCCCCc1c2nc(c(CCCCC)c3ccc([nH]3)c(CCCCC)c3ccc([nH]3)c(CCCCC)c3nc1C=C3)C=C2`, the TGI in experiment [1], in experiment [2], in experiment [3], in [4], in [5] and in experiment [6] was over 100 µM throughout. Further, the TGI in [7], in [8], in experiment [9] and in experiment [10] was over 100 µM each time.
For `CC(=O)OC1COC(n2c(N)c(C#N)c(C)c(C#N)c2=S)C(OC(C)=O)C1OC(C)=O` (stereo not given), the GI50 in experiment [1] was over 100 µM. In addition, the TGI in experiment [1], in experiment [2], in experiment [3], in [4], in experiment [5] and in experiment [6] was over 100 µM each time. The TGI in [7], in experiment [8], in experiment [9] and in experiment [10] was over 100 µM throughout.
